These results are taken from PMC5650372 (Oncotarget, 2017).

For test [1], the system named is pDNA-PK S2056 in NCI-H441 cells. Nature of the test: Western blot quantitation of pDNA-PK S2056. The format is cell-based, human. Here is the method:
The cell lysates were subjected to SDS-PAGE and immunoblotting with indicated antibodies. […] The pDNA-PK bands were quantified by Odyssey imaging software (LI-COR, Lincoln, NE) and normalized to total DNA-PK. IC50 values were determined by Excelfit (London, UK).

Test [2] concerns hematological and solid tumor cell lines. As to the kind of experiment: Caspase 3/7-Glo apoptosis assay. The format is cell-based, human. The settings on record: 24 h, subset of hematological and solid tumor cell lines. The protocol:
Proliferation assays were performed as previously described. […] The concentration of compound required for a 2-fold induction of Caspase was determined (CalX).

Test [3] concerns NHEJ in intact cells of different cell lines. Nature of the test: Cellular NHEJ assay, summary over cell lines. The class given is cell-based. The settings on record: Homo sapiens; range over different cell lines (Table 1); read-out: potency against NHEJ in intact cells. Here is the method: (§1) deficient cell growth in vitro […]
(§2) incorporated in the corresponding no inhibitor control mTOR, DNA-PK and PI3K-alpha assays were to determine percent inhibition. An IC50 value was then performed as reported previously. estimated.
(§3) ATM and ATR assay and IC50 determination Cellular NHEJ assay
(§4) HA-ATM and FLAG-ATR (HA-labeled ATM, and The experimental design is illustrated in FLAG-labeled ATR) were each transiently expressed in Supplementary Figure 4. Cal-51 breast cancer cells HEK293 cells (293FT cells, Invitrogen Cat: R700-07) were separately transfected with pEGFP plasmid (6085-using Lipofectamine as transfection reagent. Cells were 1, Clontech, Mountain View, CA) digested with either harvested 6 days post transfection and spun down to EcoRI (to measure NHEJ) or StuI (to measure transfection separate cells from media. Cells were then lysed using a efficiency) using a Amaxa cell line nuclearfector kit V lysis buffer (50 mM Tris buffer, (Tris(hydroxylmethyl)- (CCA-1003, Lonza). Immediately after the transfection, aminomethane, pH 7.5), 100 mM NaCl, 50 mM βGOP, the cells were treated with DMSO or compounds at 10% Glycerol, 0.5% Tween 20, 1 mM EDTA, 25 mM indicated concentrations for 24 hours and GFP-positive sodium fluoride (NaF), 20 nM microcystine, 2 mM cells were counted under a fluorescent microscope. […]

Test [4] deals with pATM S1981. Nature of the test: Western blot of cell-free NHEJ reaction (MCF7 nuclear extract). The class given is biochemical, human. The settings on record: MCF7 nuclear extract with linear dsDNA. The protocol:
(§5) Nuclear protein (10-20 μg) prepared above was pre-treated with compounds as indicated on ice for 15 minutes. Twenty-five nanograms of EcoRI-digested pBluescript DNA (Stratagene, La Jolla, CA) were then added and the mixture was adjusted to 20 μL final volume in NHEJ buffer (50 mM Hepes-KOH pH 8.0, 40 mM KOAc, 1 mM Mg(OAc)2, 1 mM ATP, 0.1 mg/mL BSA, and 1 mM DTT). After incubation at 25°C for 60 minutes, the reaction was terminated by incubation with 1 μg/mL RNase A for 10 minutes followed by treatment with 2 mg/mL Protease K in 0.5% SDS at 55°C for 30 minutes. The reactions were run onto 0.8% agarose and the gel was stained with Sybr Green (S756, Invitrogen, Carlsbad, CA). For Western blots, an aliquot of the same reaction mixture described above was subjected to SDS-PAGE, transferred to the PVDF membrane, and immunoblotted with indicated antibodies.

The test system of test [5] is pDNA-PK S2056. Described as above. The class given is biochemical, human. Here is the method:
as §5

Test [6] deals with pChk2 T68. The test is described as above. The class given is biochemical, human. As to conditions: MCF7 nuclear extract, 0.05, 0.5 or 5 μM. Here is the method:
as §5

Test [7] relates to pS6 S235/236 in NCI-H441 cells. Nature of the test: Western blot quantitation of pS6 S235/236 (mTORC1 biomarker). The class given is cell-based. As to conditions: Homo sapiens; NCI-H441, presence of bleomycin, 2 hrs, n=3; read-out: IC50 of pS6 S235/236 inhibition.
The test system of test [8] is NHEJ in Cal-51 cells. As to the kind of experiment: Cellular NHEJ assay with GFP reporter gene. The class given is cell-based, human. The settings on record: 1 μM. Here is the method:
as §1, §2, §3, §4

The subject of test [9] is NHEJ in PC3 prostate cancer cells. As to the kind of experiment: 384-well image-based cellular NHEJ assay. The format is cell-based. As to conditions: Homo sapiens; PC3, n=3.
Text: as §3
as §4, with “microscope. NHEJ phenylmethylsulfonylfluoride (PMSF) and protease activity was calculated by the number of GFP-positive inhibitor cocktail) followed by sonication 3 times and a cells in cells transfected with pEGFP-EcoRI divided by final spin at 20,000 rpm for 30 minutes to generate a clear that in cells transfected with pEGFP-StuI, multiplied by lysate. To perform the immunoprecipitation, enzymes were 100.” for “microscope.”
(§6) or FLAG tags. Beads plus enzymes were then washed 3 developed. Different cell lines were transfected using times with lysis buffer and spun down at 1000 rpm for the procedure described above and subsequently seeded 1 minute. Beads plus enzymes were resuspended in lysis into 384-well plates at optimized density for individual buffer and kept at 4°C until assay. Assays for ATM and cell lines. Cells were then treated with compounds at ATR were conducted in a 33P radioactive assay format. increasing concentrations. GFP+ cells were imaged Assay buffer contained the following reagents: 1 mg/mL and quantitated using the IncuCyte (Essen Bioscience, GST-p53 (glutathione S-transferase–p53 fusion protein) Ann Arbor, MI). NHEJ activity was then normalized substrate (expressed in-house), 20 μg/mL calf thymus to the DMSO control and fitted to the Sigmoidal Dose-DNA activator (Sigma), 100 μg/mL BSA, 200 μM EGTA Response Model (IDBS XLFit Model 205; London, UK)

Test [10] relates to NHEJ in MDA-MB-231 breast cancer cells. Nature of the test: 384-well image-based cellular NHEJ assay. The class given is cell-based. As to conditions: Homo sapiens; MDA-MB-231, n=3.
Text: as §3
as §4, with “microscope. NHEJ phenylmethylsulfonylfluoride (PMSF) and protease activity was calculated by the number of GFP-positive inhibitor cocktail) followed by sonication 3 times and a cells in cells transfected with pEGFP-EcoRI divided by final spin at 20,000 rpm for 30 minutes to generate a clear that in cells transfected with pEGFP-StuI, multiplied by lysate. To perform the immunoprecipitation, enzymes were 100.” for “microscope.”
as §6

Test [11] relates to NHEJ in Cal-51 cells. As to the kind of experiment: 384-well image-based cellular NHEJ assay. The settings on record: Homo sapiens; Cal-51, n=3. The format is cell-based.
Text: as §3
as §4, with “microscope. NHEJ phenylmethylsulfonylfluoride (PMSF) and protease activity was calculated by the number of GFP-positive inhibitor cocktail) followed by sonication 3 times and a cells in cells transfected with pEGFP-EcoRI divided by final spin at 20,000 rpm for 30 minutes to generate a clear that in cells transfected with pEGFP-StuI, multiplied by lysate. To perform the immunoprecipitation, enzymes were 100.” for “microscope.”
as §6

For test [12], the system named is NHEJ in HCT116 colorectal cancer cells. As to the kind of experiment: 384-well image-based cellular NHEJ assay. The format is cell-based. As to conditions: Homo sapiens, HCT-116; HCT116, n=3.
Text: as §3
as §4, with “microscope. NHEJ phenylmethylsulfonylfluoride (PMSF) and protease activity was calculated by the number of GFP-positive inhibitor cocktail) followed by sonication 3 times and a cells in cells transfected with pEGFP-EcoRI divided by final spin at 20,000 rpm for 30 minutes to generate a clear that in cells transfected with pEGFP-StuI, multiplied by lysate. To perform the immunoprecipitation, enzymes were 100.” for “microscope.”
as §6

Consider `CCN1C(=O)CNc2ncc(-c3ccc(-c4nc[nH]n4)nc3C)nc21` [CC-115, 1-ethyl-7-(2-methyl-6-(1H-1,2,4-triazol-3-yl)pyridin-3yl)-3,4-dihydropyrazino[2,3-b]pyrazin-2(1H)-one], for which the IC50 in test [1] (Homo sapiens, NCI-H441, presence of bleomycin, 2 hrs, n=3, read-out: IC50 of pDNA-PK S2056 inhibition) was 2600 ± 450 nM; in [3] it was 1000 to 7000 nM; in test [7], 160 ± 10 nM; in test [9], 2720 ± 1690 nM; in test [10] it was 2160 ± 910 nM; in test [11], 3150 ± 1330 nM. Besides, the IC50 in test [12] was determined as 6350 ± 2980 nM. Moreover, in test [1] (NCI-H441), the “cellular activity against DNA-PK weaker than against mTOR kinase” value is given as around 16 fold. Besides, the “apoptosis induction (Caspase 3/7)” value in test [2] is on record as “induced strong apoptosis”. Further, in [4], the “inhibition of pATM S1981, cell-free” value is reported as “reduction”. The “inhibition of pDNA-PK S2056, cell-free” value in test [5] is recorded as “inhibited”. For the same compound, the “inhibition of pChk2 T68, cell-free” value in test [6] is “also inhibited”. Also, the “GFP-positive cells (pEGFP-EcoRI)” value in [8] was determined as 1.25%. The “GFP-positive cells (pEGFP-StuI)” value in [8] (DMSO 25.71%) was 10.47%.
